{"source": "patent US7829575B2", "about": "“Methods for treating androgen receptor related disorders” (University of Cincinnati, priority 2006, dated 2010)", "key": {"AR": {"test_system": "AR", "test": "AR nuclear localization, immunostaining", "assay_type": "cell-based", "conditions": "PC-3AR and LNCaP cells, SMEM, 20 μM, with or without 1 nM DHT, 2 h", "from_the_text": "AR nuclear translocation is a necessary step for AR action. […] AR in the cells were stained with an antibody to AR and detected with Texas Red-labeled secondary antibody. […] AR is translocated to the nuclei upon treatment with DHT. […] Thus, DL3 binds to AR."}, "22Rv1 cells [1]": {"test_system": "22Rv1 cells", "test": "PSA mRNA expression, real-time RT-PCR", "assay_type": "cell-based", "conditions": "CMEM, 24 hr, dose response (FIG. 7A)", "description": "(§1) In FIG. 7 LNCaP or 22Rv1 cells (A) are treated for 24 hr with DL3 and total RNA is extracted and analyzed by real-time RT-PCR. […] PSA mRNA in LNCaP cells is approximately 20 fold higher than that in 22Rv1 cells (FIG. 7A)."}, "LNCaP-ARR2-GFP cells": {"test_system": "LNCaP-ARR2-GFP cells", "test": "AR-regulated GFP expression in LNCaP-ARR2-GFP cells", "assay_type": "cell-based", "conditions": "SMEM, absence of DHT; DL3 at 25 nM or 20 μM"}, "[2]": {"test_system": "LAPC-4, 22Rv1, PC-3, DU-145, PWE1-NB14, PWE1-NB26, PC-3AR cells", "test": "hsp70 expression in other prostate cancer cell lines, western blotting", "assay_type": "cell-based", "description": "Downregulation of hsp70 expression by DL3 is AR-dependent. Thus, the effects of DL3 on hsp70 expression are further investigated in several other prostate cancer cell lines, including LAPC-4 (wildtype AR), 22Rv1 (mutant AR), and AR-negative cell lines PC-3, DU-145, PWE1-NB14 (ATCC), and PWE1-NB26 (ATCC). […] In FIG. 10, LAPC-4 (in SMEM) and all other (in CMEM) cells are treated for 24 hr and analyzed by western blotting. LNCaP cells are transfected for 24 hr with hsp70 or its control vector, then treated for 24 hr. Thus, the above observation is further validated in PC-3 cells stably transfected with wildtype AR (PC-3AR). […] On the other hand, overexpression of hsp70 in LNCaP cells elevates endogenous AR protein levels (FIG. 10, panel C, right). […] Thus, the downregulation of hsp70 in prostate cancer cells by DL3 is in an AR-dependent event."}, "22Rv1 cells [3]": {"test_system": "22Rv1 cells", "test": "Cellular PSA and AR protein, western blotting", "assay_type": "cell-based", "conditions": "24 hr"}, "AR-AF1 (LBD deleted)": {"test_system": "AR-AF1 (LBD deleted)", "test": "PSA promoter luciferase reporter in PC-3 cells co-transfected with AR-AF1", "conditions": "20 μM, 24 hr"}, "LNCaP cells [4]": {"test_system": "LNCaP cells", "test": "AR protein stability and hsp70/hsp90 expression, western blotting", "assay_type": "cell-based", "description": "Cell lysates are prepared and analyzed by western blotting. […] To further determine how DL3 downregulates AR, LNCaP cells are incubated for 24 hr with DL3 in the absence or presence of proteasome inhibitor MG132.\nHsp70 and hsp90 are key molecular chaperones in cells. Along with several co-chaperones, hsp70 and hsp90 play critical roles in folding and assembling AR to a high-affinity ligand binding conformation and in regulating AR activation that occurs following hormone binding. Therefore, the possibility of whether the downregulation of AR protein by DL3 is mediated by its effects on hsp70 or hsp90 expression is investigated.\nThus, the effects of DL3 on hsp70 expression are further investigated in several other prostate cancer cell lines, including LAPC-4 (wildtype AR), 22Rv1 (mutant AR), and AR-negative cell lines PC-3, DU-145, PWE1-NB14 (ATCC), and PWE1-NB26 (ATCC). […] In FIG. 10, LAPC-4 (in SMEM) and all other (in CMEM) cells are treated for 24 hr and analyzed by western blotting. LNCaP cells are transfected for 24 hr with hsp70 or its control vector, then treated for 24 hr."}, "LNCaP cells [5]": {"test_system": "LNCaP cells", "test": "Expression of AR-regulated genes, quantitative RT-PCR (Table 1)", "assay_type": "cell-based", "conditions": "DL3 20 μM for 24 hr", "description": "To evaluate the specificity of the effects of DL3, expression of several other genes are determined by quantitative RT-PCR. […] In contrast, DL3 enhances expression of prostate-specific membrane antigen (PSMA), which is repressed by AR activation."}, "LNCaP-Flut-R cells": {"test_system": "LNCaP-Flut-R cells", "test": "Growth of Flut-refractory LNCaP cells, MTT", "assay_type": "cell-based", "conditions": "10 μM, 4 days, MTT (FIG. 2F)", "from_the_text": "(§2) Viable cells are stained with MTT (3-(4,5-dimethylthiazol-2-yl)-2,5-diphenyltetrazolium bromide). *, **, and *** designate p<0.05, <0.01, and 0.001, respectively, compared with controls."}, "LNCaP-Nilut-R cells": {"test_system": "LNCaP-Nilut-R cells", "test": "Growth of Nilut-refractory LNCaP cells, MTT", "assay_type": "cell-based", "conditions": "10 μM, 4 days, MTT (FIG. 2F)", "from_the_text": "as §2"}, "LNCaP cells [6]": {"test_system": "LNCaP cells", "test": "Expression of AR-regulated genes, quantitative RT-PCR (Table 1)", "assay_type": "cell-based", "conditions": "data not shown"}, "LNCaP cells [7]": {"test_system": "LNCaP cells", "test": "PSA and AR mRNA expression, RT-PCR", "assay_type": "cell-based", "conditions": "24 hr", "description": "as §1"}, "LNCaP cells [8]": {"test_system": "LNCaP cells", "test": "PSA gene transcription, real-time PCR-based nuclear run-on", "conditions": "20 μM, 16 hr"}, "[9]": {"test_system": "LAPC-4 cells (wildtype AR)", "test": "Cellular PSA and AR protein, western blotting", "assay_type": "cell-based"}, "[10]": {"conditions": "20 μM DL3, time course to 48 hr (FIG. 9A)"}}}
{"smiles": "CC(C)(C)c1ccc(OCCSc2nc(=O)cc(N)[nH]2)cc1", "note": "[DL3, 6-amino-2-(2-4-tert-butyl-phenoxy)-ethylsulfanyl-1H-pyrimidin-4-one]", "values": [{"measurement": "nuclear localization of AR", "setting": "AR", "value": "partially induce and enhance DHT-induced nuclear localization of AR"}, {"measurement": "expression of PSA mRNA", "setting": "22Rv1 cells [1]", "value": "inhibits the expression of PSA mRNA"}, {"measurement": "GFP expression (AR agonist activity)", "setting": "LNCaP-ARR2-GFP cells", "value": "does not induce GFP expression"}, {"measurement": "downregulation of hsp70 expression across AR-positive and AR-negative cell lines", "setting": "[2]; LAPC-4, 22Rv1 vs AR-negative PC-3, DU-145, PWE1-NB14, PWE1-NB26, 24 hr", "value": "found in only the cells expressing AR"}, {"measurement": "hsp70 expression in PC-3AR cells", "setting": "[2]; PC-3 stably transfected with wildtype AR", "value": "downregulates hsp70 expression"}, {"measurement": "expression of AR protein", "setting": "22Rv1 cells [3]; 5 and 10 μM", "value": "not significantly altered"}, {"measurement": "expression of AR protein", "setting": "22Rv1 cells [3]; 20 and 40 μM", "value": "reduced"}, {"measurement": "PSA protein expression", "setting": "22Rv1 cells [3]; CMEM, increasing concentrations", "value": "inhibitory effects"}, {"measurement": "activation of PSA promoter activity by AR-AF1", "setting": "AR-AF1 (LBD deleted)", "value": "does not inhibit"}, {"measurement": "time after exposure at which AR downregulation can be observed", "setting": "LNCaP cells [4]; 20 μM", "value": 8, "unit": "h"}, {"measurement": "time after treatment at which reduction of hsp70 starts", "setting": "LNCaP cells [4]; 20 μM DL3", "value": 4, "unit": "h"}, {"measurement": "expression of hsp70", "setting": "LNCaP cells [4]; [10]", "value": "reduced"}, {"measurement": "expression of hsp90", "setting": "LNCaP cells [4]; [10]", "value": "not"}, {"measurement": "partial reversal by DHT of the CHX-diminished AR expression", "setting": "LNCaP cells [4]; 24 hr with DHT, DL3 and CHX (FIG. 9B, lane 7 vs. lane 6)", "value": "also blocked"}, {"measurement": "AR downregulation by DL3 under overexpression of hsp70", "setting": "LNCaP cells [4]; LNCaP cells transfected 24 hr with hsp70, then treated 24 hr", "value": "not able to protect AR downregulation"}, {"measurement": "elevation of AR and PSA expression by DHT", "setting": "LNCaP cells [4]; SMEM, 24 hr (FIG. 9B, lane 4 vs. lane 3)", "value": "blocked"}, {"measurement": "AR protein levels", "setting": "LNCaP cells [4]; dose-dependent", "value": "downregulates AR protein levels"}, {"measurement": "IL-8 expression DL3/CTR (%)", "setting": "LNCaP cells [5]", "value": 107, "unit": "%"}, {"measurement": "IL-8 expression level relative to β-actin", "setting": "LNCaP cells [5]", "value": "8.59e−04"}, {"measurement": "PSA expression DL3/CTR (%)", "setting": "LNCaP cells [5]", "value": 3, "unit": "%"}, {"measurement": "PSA expression level relative to β-actin", "setting": "LNCaP cells [5]", "value": "3.03e−02"}, {"measurement": "PSCA expression DL3/CTR (%)", "setting": "LNCaP cells [5]", "value": 55, "unit": "%"}, {"measurement": "PSCA expression level relative to β-actin", "setting": "LNCaP cells [5]", "value": "1.90e−04"}, {"measurement": "PSMA expression DL3/CTR (%)", "setting": "LNCaP cells [5]", "value": 379, "unit": "%"}, {"measurement": "PSMA expression level relative to β-actin", "setting": "LNCaP cells [5]", "value": "1.35e−01"}, {"measurement": "hK2 expression DL3/CTR (%)", "setting": "LNCaP cells [5]", "value": 18, "unit": "%"}, {"measurement": "hK2 expression level relative to β-actin", "setting": "LNCaP cells [5]", "value": "4.05e−03"}, {"measurement": "growth of LNCaP-Flut-R cells", "setting": "LNCaP-Flut-R cells", "value": "significantly inhibits growth"}, {"measurement": "growth of LNCaP-Nilut-R cells", "setting": "LNCaP-Nilut-R cells", "value": "significantly inhibits growth"}, {"measurement": "PSMA expression at the protein level", "setting": "LNCaP cells [6]", "value": "Enhancement of PSMA expression"}, {"measurement": "DHT-stimulated PSA mRNA expression", "setting": "LNCaP cells [7]; 20 μM, 1 nM DHT", "value": "abolishes"}, {"measurement": "basal level of PSA mRNA", "setting": "LNCaP cells [7]; 20 μM, androgen-starved", "value": "significantly reduces"}, {"measurement": "expression of AR mRNA", "setting": "LNCaP cells [7]; 1 nM DHT, 20 μM DL3 or Bical", "value": "partially downregulated"}, {"measurement": "expression of PSA mRNA", "setting": "LNCaP cells [7]; CMEM, dose response (FIG. 7A)", "value": "inhibits the expression of PSA mRNA"}, {"measurement": "DHT-induced PSA mRNA transcription activity of nuclear extracts", "setting": "LNCaP cells [8]; 1 nM DHT", "value": "significantly reduced"}, {"measurement": "basal PSA mRNA transcription activity of nuclear extracts", "setting": "LNCaP cells [8]", "value": "significantly reduced"}, {"measurement": "AR protein expression", "setting": "[9]; 20 μM, 24 hr", "value": "similarly reduced"}, {"measurement": "DHT-induced PSA protein expression", "setting": "[9]; SMEM, 1 nM DHT, 20 μM DL3, 24 hr", "value": "inhibitory effects"}]}
